# Measured values: the supplement of paper PMC10307832
# Key:
# Experiment in all cases: relative viability (nuclei count vs DMSO), 5 days (fraction); higher = more cells survive
# [1] = compound: CN1C=C(C2=CC=CC=C21)/C=C\3/C4=C(C=CC=N4)NC3=O + CC(=O)Nc1cccc(-n2c(=O)n(C3CC3)c(=O)c3c(Nc4ccc(I)cc4F)n(C)c(=O)c(C)c32)c1 [Trametinib] (partner 0.02 µM)
# How it was run: (§1)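 Each reported value is a median over duplicate plates. It expresses relative viability: treated-well nuclei count divided by vehicle-well nuclei count. Lung cancer cell lines in 1536-well plates were dosed by pin tool a day after seeding, alone with one drug or with a fixed anchor-drug dose plus five library-drug doses (not always all listed) in √10 steps, and nuclei were counted after 5 days.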
# [2] = compound: CN1C=C(C2=CC=CC=C21)/C=C\3/C4=C(C=CC=N4)NC3=O + COc1cccc2cc(-c3nc([C@H]4CC[C@H](C(=O)O)CC4)n4ncnc(N)c34)[nH]c12 [OSI-027] (partner 0.5 µM)
# How it was run: as §1
# Trametinib + Palbociclib = compound: CC(=O)Nc1cccc(-n2c(=O)n(C3CC3)c(=O)c3c(Nc4ccc(I)cc4F)n(C)c(=O)c(C)c32)c1 [Trametinib] + CC(=O)c1c(C)c2cnc(Nc3ccc(N4CCNCC4)cn3)nc2n(C2CCCC2)c1=O [Palbociclib] (partner 0.5 µM)
# How it was run: as §1
# [3] = compound: CN1C=C(C2=CC=CC=C21)/C=C\3/C4=C(C=CC=N4)NC3=O + NC(=O)Nc1cc(-c2cccc(F)c2)sc1C(=O)N[C@H]1CCCNC1 [AZD7762] (partner 0.2 µM)
# How it was run: as §1
cell line,measurement,setting,value
NCI-H1666,relative viability,[1]; first compound 0.02 µM,0.987
same,relative viability,[1]; first compound 0.06325 µM,0.832
same,relative viability,[1]; first compound 0.2 µM,0.901
same,relative viability,[1]; first compound 0.6325 µM,0.857
same,relative viability,[1]; first compound 2 µM,0.925
same,relative viability,[2]; first compound 0.02 µM,0.853
same,relative viability,[2]; first compound 0.06325 µM,0.914
same,relative viability,[2]; first compound 0.2 µM,0.842
same,relative viability,[2]; first compound 0.6325 µM,0.729
same,relative viability,[2]; first compound 2 µM,0.818
same,relative viability,Trametinib + Palbociclib; first compound 0.0025 µM,0.695
same,relative viability,Trametinib + Palbociclib; first compound 0.007906 µM,0.662
same,relative viability,Trametinib + Palbociclib; first compound 0.025 µM,0.665
same,relative viability,Trametinib + Palbociclib; first compound 0.07906 µM,0.66
same,relative viability,Trametinib + Palbociclib; first compound 0.25 µM,0.686
same,relative viability,[3]; first compound 0.02 µM,0.896
same,relative viability,[3]; first compound 0.06325 µM,0.79
same,relative viability,[3]; first compound 0.2 µM,0.826
same,relative viability,[3]; first compound 0.6325 µM,0.742
same,relative viability,[3]; first compound 2 µM,0.871
LU99A,relative viability,[1]; first compound 0.02 µM,0.554
same,relative viability,[1]; first compound 0.06325 µM,0.504
same,relative viability,[1]; first compound 0.2 µM,0.494
same,relative viability,[1]; first compound 0.6325 µM,0.588
same,relative viability,[1]; first compound 2 µM,0.597
same,relative viability,[2]; first compound 0.02 µM,0.298
same,relative viability,[2]; first compound 0.06325 µM,0.303
same,relative viability,[2]; first compound 0.2 µM,0.282
same,relative viability,[2]; first compound 0.6325 µM,0.255
same,relative viability,[2]; first compound 2 µM,0.299
same,relative viability,Trametinib + Palbociclib; first compound 0.0025 µM,0.401
same,relative viability,Trametinib + Palbociclib; first compound 0.007906 µM,0.436
same,relative viability,Trametinib + Palbociclib; first compound 0.025 µM,0.335
same,relative viability,Trametinib + Palbociclib; first compound 0.07906 µM,0.355
same,relative viability,Trametinib + Palbociclib; first compound 0.25 µM,0.243
same,relative viability,[3]; first compound 0.02 µM,0.372
same,relative viability,[3]; first compound 0.06325 µM,0.435
same,relative viability,[3]; first compound 0.2 µM,0.345
same,relative viability,[3]; first compound 0.6325 µM,0.331
same,relative viability,[3]; first compound 2 µM,0.377
201T,relative viability,[1]; first compound 0.02 µM,0.758
same,relative viability,[1]; first compound 0.06325 µM,0.727
same,relative viability,[1]; first compound 0.2 µM,0.754
same,relative viability,[1]; first compound 0.6325 µM,0.797
same,relative viability,[1]; first compound 2 µM,0.763
same,relative viability,[2]; first compound 0.02 µM,0.773
same,relative viability,[2]; first compound 0.06325 µM,0.366
same,relative viability,[2]; first compound 0.2 µM,0.626
same,relative viability,[2]; first compound 0.6325 µM,0.835
same,relative viability,[2]; first compound 2 µM,0.422
same,relative viability,Trametinib + Palbociclib; first compound 0.0025 µM,0.344
same,relative viability,Trametinib + Palbociclib; first compound 0.007906 µM,0.321
same,relative viability,Trametinib + Palbociclib; first compound 0.025 µM,0.284
same,relative viability,Trametinib + Palbociclib; first compound 0.07906 µM,0.322
same,relative viability,Trametinib + Palbociclib; first compound 0.25 µM,0.272
same,relative viability,[3]; first compound 0.02 µM,0.578
same,relative viability,[3]; first compound 0.06325 µM,0.662
same,relative viability,[3]; first compound 0.2 µM,0.761
same,relative viability,[3]; first compound 0.6325 µM,0.668
same,relative viability,[3]; first compound 2 µM,0.658
HCC-15,relative viability,[1]; first compound 0.02 µM,0.411
same,relative viability,[1]; first compound 0.06325 µM,0.392
same,relative viability,[1]; first compound 0.2 µM,0.403
same,relative viability,[1]; first compound 0.6325 µM,0.377
same,relative viability,[1]; first compound 2 µM,0.367
same,relative viability,[2]; first compound 0.02 µM,0.656
same,relative viability,[2]; first compound 0.06325 µM,0.568
same,relative viability,[2]; first compound 0.2 µM,0.582
same,relative viability,[2]; first compound 0.6325 µM,0.651
same,relative viability,[2]; first compound 2 µM,0.552
same,relative viability,Trametinib + Palbociclib; first compound 0.0025 µM,0.704
same,relative viability,Trametinib + Palbociclib; first compound 0.007906 µM,0.427
same,relative viability,Trametinib + Palbociclib; first compound 0.025 µM,0.307
same,relative viability,Trametinib + Palbociclib; first compound 0.07906 µM,0.232
same,relative viability,Trametinib + Palbociclib; first compound 0.25 µM,0.222
same,relative viability,[3]; first compound 0.02 µM,1.11
same,relative viability,[3]; first compound 0.06325 µM,1.13
same,relative viability,[3]; first compound 0.2 µM,1.37
same,relative viability,[3]; first compound 0.6325 µM,1.22
same,relative viability,[3]; first compound 2 µM,1.31
